# Measured values: US9975882B2, “Heteroaromatic compounds as BTK inhibitors” (Boehringer Ingelheim International GmbH, priority 2015, dated 2018)
# Molecular target: human full length His-tagged BTK (Homo sapiens (Human), UniProt Q06187)
# Test: BTK Lanthscreen Eu Kinase Binding assay
# Conditions: 2 nM BTK
# Protocol: BTK Lanthscreen® Eu Kinase Binding Assay:
# A Lanthscreen® Eu Kinase Binding assay (Life Technologies) is performed to quantitate the ability of test compounds to bind to BTK. The assay is based on the binding and displacement of Alexa Fluor647-labeled Kinase Tracer #236 to the ATP-binding site of human full length His-tagged BTK (Life Technologies cat #PV3587) with TR-FRET detection using a europium-labeled anti-His antibody. The assay is assembled in 384-well low volume NBS black plates (Corning) where 2 nM BTK and test compound in DMSO at varying concentrations are pre-incubated for 30 min at 28° C. in assay buffer consisting of 50 mM HEPES, pH 7.4, 10 mM MgCl2, 1 mM EGTA. 100 μM Na3VO4 and 0.01% Brij 35. Then, 2 nM of Eu-anti His antibody and 30 nM Kinase Tracer are added and incubated for 60 min at 28° C. Following incubation, TR-FRET signal is read on an Envision plate reader (Excitation: 340 nm; Emissions: 615 and 665 nm). The 665:615 nm emission ratio is calculated and converted to POC compared to control and blank wells.
# human full length His-tagged BTK, sequence (Q06187 whole entry): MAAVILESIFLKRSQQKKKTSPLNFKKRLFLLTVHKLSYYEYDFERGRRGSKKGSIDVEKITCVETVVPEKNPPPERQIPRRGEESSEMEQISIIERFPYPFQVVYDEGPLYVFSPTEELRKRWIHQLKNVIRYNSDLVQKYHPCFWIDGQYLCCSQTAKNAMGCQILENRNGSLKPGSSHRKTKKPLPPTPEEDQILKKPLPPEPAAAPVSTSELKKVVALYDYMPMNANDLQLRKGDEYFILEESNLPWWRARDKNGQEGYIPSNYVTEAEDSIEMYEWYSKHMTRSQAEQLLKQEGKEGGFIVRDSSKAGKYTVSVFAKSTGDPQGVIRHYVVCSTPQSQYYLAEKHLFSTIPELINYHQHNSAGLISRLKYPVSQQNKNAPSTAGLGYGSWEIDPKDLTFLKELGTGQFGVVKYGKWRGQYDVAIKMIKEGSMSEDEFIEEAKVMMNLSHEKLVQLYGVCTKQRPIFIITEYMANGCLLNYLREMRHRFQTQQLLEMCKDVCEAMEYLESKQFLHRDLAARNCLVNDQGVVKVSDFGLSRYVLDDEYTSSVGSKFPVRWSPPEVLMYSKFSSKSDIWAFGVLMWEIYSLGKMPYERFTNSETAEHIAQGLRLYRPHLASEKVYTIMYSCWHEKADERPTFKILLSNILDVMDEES
row,SMILES,IC50 [nM]
1,CC#CC(=O)N1CC2(CC(n3nc(-c4cnn(Cc5cc(C)cc(C)c5)c4)c(C(N)=O)c3N)C2)C1 [Example 40],4.2
2,CC#CC(=O)N1CC[C@]2(C1)C[C@H](n1nc(-c3cnn(Cc4ccnc(C(F)(F)F)c4)c3)c(C(N)=O)c1N)C2 [Example 13],9.1
3,CC#CC(=O)N1CC[C@]2(C1)C[C@H](n1nc(-c3cnn(C(C)c4cccc(C(F)(F)F)c4)c3)c(C(N)=O)c1N)C2 (some centres unmarked) [Example 15],1.1
4,CC#CC(=O)N1CC[C@]2(C1)C[C@H](n1nc(-c3cn(Cc4cccc(C5CC5)c4)nc3C)c(C(N)=O)c1N)C2 [Example 37],0.8
5,CC#CC(=O)N1CC[C@]2(C1)C[C@H](n1nc(-c3cn(Cc4cccc(Cl)c4)nc3C)c(C(N)=O)c1N)C2 [Example 34],0.7
6,C=CC(=O)N1CC[C@]2(C1)C[C@H](n1nc(-c3cnn(Cc4cccc(C(F)(F)F)c4)c3)c(C(N)=O)c1NC)C2 [Example 20],22
7,CC#CC(=O)N1CC[C@]2(C1)C[C@H](n1nc(-c3cnn(Cc4ccccc4OC(F)(F)F)c3)c(C(N)=O)c1N)C2 [Example 9],0.6
8,CC#CC(=O)N1CC[C@]2(C1)C[C@H](n1nc(-c3cnn(Cc4cc(C)cc(C(F)(F)F)c4)c3)c(C(N)=O)c1N)C2 [Example 38],3
9,CC#CC(=O)N1CC[C@]2(C1)C[C@H](n1nc(-c3cnn(Cc4cc(C(F)(F)F)ccc4C)c3)c(C(N)=O)c1N)C2 [Example 4],1.8
10,C=CC(=O)N1CC[C@]2(C1)C[C@H](n1nc(-c3cnn(Cc4ccccc4)c3)c(C(N)=O)c1N)C2 [Example 1],36
11,CC#CC(=O)N1CC[C@]2(C1)C[C@H](n1nc(-c3cn(Cc4cccc(C(F)F)c4)nc3C)c(C(N)=O)c1N)C2 [Example 35],0.9
12,CC#CC(=O)N1CC[C@]2(C1)C[C@H](n1nc(-c3cnn(Cc4ccc(C)c(C(F)(F)F)c4)c3)c(C(N)=O)c1N)C2 [Example 5],0.4
13,CC#CC(=O)N1CC[C@]2(C1)C[C@H](n1nc(-c3cnn(Cc4cc(Cl)cc(C(F)(F)F)c4)c3)c(C(N)=O)c1N)C2 [Example 39],0.9
14,CC#CC(=O)N1CC[C@]2(C1)C[C@H](n1nc(-c3cnn(Cc4cccc(C5CC5)c4)c3)c(C(N)=O)c1NC)C2 [Example 24],0.8
15,CC#CC(=O)N1CC[C@]2(C1)C[C@H](n1nc(-c3cnn(Cc4cc(F)cc(C(F)(F)F)c4)c3)c(C(N)=O)c1N)C2 [Example 31],0.8

# Second part, the molecule after the results:
row,IC50 [nM],SMILES
1,0.9,CC#CC(=O)N1CC[C@]2(C1)C[C@H](n1nc(-c3cnn(Cc4cc(F)ccc4C(F)(F)F)c3)c(C(N)=O)c1N)C2 [Example 57]
2,3,C=CC(=O)N1CC[C@]2(C1)C[C@H](n1nc(-c3cnn(Cc4cccc(C5CC5)c4)c3)c(C(N)=O)c1N)C2 [Example 43]
3,16,C=CC(=O)N1CC2(CC(n3nc(-c4cnn(Cc5ccccc5)c4)c(C(N)=O)c3N)C2)C1 [Example 48]
4,45,CC#CC(=O)N1CC2(CC(n3nc(-c4cnn(Cc5cc(C(F)(F)F)cc(C(F)(F)F)c5)c4)c(C(N)=O)c3N)C2)C1 [Example 49]
5,0.3,NC(=O)c1c(-c2cnn(Cc3ccccc3)c2)nn([C@H]2C[C@@]3(CCN(C(=O)C#CC4CC4)C3)C2)c1N [Example 41]
6,78,C=CC(=O)N1CC[C@]2(C1)C[C@H](n1nc(-c3cnn(Cc4cccc(C(F)(F)F)c4)c3)c(C(N)=O)c1N)C2 [Example 42]
7,7.9,CC#CC(=O)N1CC2(CC(n3nc(-c4cnn(Cc5cc(C)cc(C(F)(F)F)c5)c4)c(C(N)=O)c3N)C2)C1 [Example 46]
8,6,CC#CC(=O)N1CC2(CC(n3nc(-c4cnn(Cc5ccccc5)c4)c(C(N)=O)c3N)C2)C1 [Example 45]
